Experimental findings from patent US20240124455A1, “TRICYCLIC COMPOUNDS AS ANTICANCER AGENTS” (JINGRUI BIOPHARMA CO., LTD., priority 2021, published 2024) are described below.

One experiment deals with MV-4-11. Kind of experiment: Cell proliferation assay (Cell Titer-Glo). The class given is cell-based. The settings on record: MV-4-11 cells, compound treatment 72 h, CellTiter-Glo. How it is done: In order to evaluate the activity of the compound on cells, the Cell Titer-Glo assay was used for detection. The cells were incubated in a 37° C. incubator and treated with compounds for 72 hours. At the end of the reaction, the number of living cells in the culture is measured by quantitative determination of ATP. ATP is an indicator of the metabolism of living cells. With Cell Titer-Glo, the luminescence signal produced by cell lysis is proportional to the amount of ATP present, and the amount of ATP is directly proportional to the number of cells in the culture. These signal ratios reflect the cell activity of the compound at that concentration in the well under this condition. • (1) Seeding cells • Trypsinize cells and count cell density with the automated cell counter. • Dilute cell suspension to required density according to seeding density. • Seed 100 ul cells into 96-well plate in growth medium according to the plate map. Medium only is used as background control (Min). • Incubate at 37° C., 5% CO2 overnight. • (2) Compound treatment • Make 200× compound solution in DMSO. • Dilute compounds with growth medium to 3× final concentration by addition of 3 ul 200× compounds to 197 ul growth medium. • Add 50 ul diluted compounds to cells and incubate at 37° C., 5% CO2 for 72 h. • (3) Measurement • Equilibrate the assay plate to room temperature prior to measurement. • Add 40 ul of CellTiter-Glo® Reagent into each well. • Mix contents for 2 minutes on an orbital shaker to induce cell lysis. • Incubate at room temperature for 60 minutes to stabilize luminescent signal. • Record luminescence on Envision. • (4) Data analysis • (1) Using GraphPad Prism 5. • (2) % Inh=(Max signal−Compound signal)/(Max signal−Min signal)×100. • (3) Max signal was obtained from the action of DMSO. • (4) Min signal was obtained from the action of medium only.
For orientation: Cellular ATP, detected with luciferase, serves as a proxy for viable cell number.

The next experiment addresses T1, BRD4 (BD1) (Homo sapiens, UniProt O60885).
T1 construct: purchased Reaction Biology Company RD-11-157
Nature of the experiment: BRD4 (BD1) binding assay (HTRF). The settings on record: BRD4 (D1) with GST tag and biotin-labeled acetylated peptide. The procedure:
The BRD4 (BD1) biochemical binding assay was carried out by Sundia MediTech Co., Ltd. • Materials and suppliers: • BRD4(D1): Reaction Biology Company; catalog #: RD-11-157; batch #1319 • Positive control compound: AZD5153; Selleck, catalog #, S8344, batch #, 1 • Peptide: GL China; catalog #329934; batch #, P171229-JQ329934 • DMSO: Sigma; catalog #, D8418-1L; batch #, SHBG3288V • OptiPlate-384: PerkinElmer; catalog #6007270, batch #, 8240-17211 • Instruments: • Centrifuge (manufacturer: Eppendorf, model: 5430) • Microplate reader (manufacturer: Perkin Elmer, model: EnVision) • Sonic pipetting system (manufacturer: Labcyte, model: Echo® 550) • In the assay, the HTRF method uses an anti-GST antibody with a cryptate chelate-labeled europium element as the donor, and the d2 or XL665-labeled streptavidin (having high affinity with biotin) as the acceptor to study the interaction between BRD4 (D1) with GST tag and biotin-labeled acetylated peptide. When the donor and acceptor are close to each other due to the binding of BRD4 (D1) to the biotin-labeled peptide, the excitation of the donor triggers fluorescence resonance energy transfer (FRET) to the acceptor, which then emits fluorescence at a specific wavelength (665 nm). • General assay procedure: 20 nL of compound solution was transferred to the 384-well plate by Labcyte Echo® 550 liquid handler, and 5 μL of BRD4 (BD1) solution from Reaction Biology Company, RD-11-157, or the assay buffer was added to each well. After centrifuge for 1 minute and incubating 15 minutes at rt, the 5 μL peptide (GL China, Catalog #329934, Batch, P171229-JQ329934) was added to each well. After centrifuge for 1 minute at 1000 rpm, 10 μL detect solution was added to each well. After incubating for 60 minutes, centrifuging 1 minute, the signals were measured by Microplate reader. Data analysis: The inhibition percentage in the presence of the compound was calculated based on the following formula:
% Inhibition=(Signal_max−Signal sample/Signal_max−Signal_min)×100
Fitting the data in GrphaPad Prism V5.0 software with log(inhibitor) vs. response-Variable slope, the IC50 was obtained.
(TR-FRET usually uses a lanthanide donor and a delayed reading to cut background.)

Consider `[2H]C([2H])([2H])c1nnn(C)c1-c1cnc2c3nn(C([2H])([2H])[2H])c(C(C)(C)O)c3n(C(c3ncccc3F)C3CCOCC3)c2c1` (single isomer, unassigned) [Example 23, 2-(4-((3-Fluoropyridin-2-yl)(tetrahydro-2H-pyran-4-yl)methyl)-2-(methyl-d3)-6-(1-methyl-4-(methyl-d3)-1H-1,2,3-triazol-5-yl)-2,4-dihydropyrazolo[3′,4′:4,5]pyrrolo[3,2-b]pyridin-3-yl)propan-2-ol], for which the results for the IC50 with MV-4-11 and on BRD4 (BD1) were 66.8 nM and 4.4 nM, respectively.
The matching figures for `[2H]C([2H])([2H])c1nnn(C)c1-c1cnc2c3nn(C([2H])([2H])[2H])c(C(C)(C)O)c3n(C(c3ncccc3F)C3CCOCC3)c2c1` (single isomer, unassigned) [Example 24, 2-(4-((3-Fluoropyridin-2-yl)(tetrahydro-2H-pyran-4-yl)methyl)-2-(methyl-d3)-6-(1-methyl-4-(methyl-d3)-1H-1,2,3-triazol-5-yl)-2,4-dihydropyrazolo[3′,4′:4,5]pyrrolo[3,2-b]pyridin-3-yl)propan-2-ol]: 0.47 nM and 0.17 nM.
Regarding `Cc1nnn(C)c1-c1cnc2c3nn(C)c(C(C)(C)O)c3n([C@@H](c3ccccn3)C3CCOCC3)c2c1` [Example 7], the IC50 (as a rule, the concentration that inhibits the measured activity by half) worked out at 139 nM with MV-4-11 (Homo sapiens, MV4-11, 72 h) and 8.4 nM at BRD4 (BD1).
The matching figures for `Cc1nnn(C)c1-c1cnc2c3nn(C)c(C(C)(C)O)c3n([C@H](c3ccccn3)C3CCOCC3)c2c1` [Example 8]: 0.75 nM and 0.18 nM.
As to `COC(=O)c1c2c(nn1C)c1ncc(-c3c(C)nnn3C)cc1n2C(c1ncccc1F)C1CCOCC1` (stereo not drawn) [Example 9, Methyl 6-(1,4-dimethyl-1H-1,2,3-triazol-5-yl)-4-((3-fluoropyridin-2-yl)(tetrahydro-2H-pyran-4-yl)methyl)-2-methyl-2,4-dihydropyrazolo[3′,4′:4,5]pyrrolo[3,2-b]pyridine-3-carboxylate], the IC50 with MV-4-11 (Homo sapiens, MV4-11, 72 h) amounted to 1.52 nM; at BRD4 (BD1), 0.51 nM.
On to `[2H]C([2H])([2H])c1nnn(C)c1-c1cnc2c3nn(C)c(C(=O)OC)c3n(C(c3ncccc3F)C3CCOCC3)c2c1` (stereo not drawn) [Example 17, Methyl 4-((3-fluoropyridin-2-yl)(tetrahydro-2H-pyran-4-yl)methyl)-2-methyl-6-(1-methyl-4-(methyl-d3)-1H-1,2,3-triazol-5-yl)-2,4-dihydropyrazolo[3′,4′:4,5]pyrrolo[3,2-b]pyridine-3-carboxylate], for which the IC50 was found to be 3.3 nM with MV-4-11 (Homo sapiens, MV4-11, 72 h) and 0.59 nM at BRD4 (BD1).
